Assay results published in US6274559A, “Liver protection or treatment agents comprising asiatic acid derivatives as the active component” (Dong Kook Pharmaceutical Co., Ltd., priority 1997, dated 2001).

Key:
[1] = tested on: liver cell (galactosamine-induced toxicity); experiment: Protection effect against galactosamine-induced toxicity of liver cell (GPT activity, relative protection); format: cell-based, male Wister rats; conditions: 1.5 mM galactosamine, 14 h, healthy liver cell = 100%, toxicity = 0%; for Relative liver cell protection (%) at 5 µg/mL / Relative liver cell protection (%) at 50 µg/mL: Rattus norvegicus
Excerpt: To investigate the protection effect of the compounds of the formula 1 of this invention, i. e. 2-oxoasiatic acid, 2-methylasiatic acid, methyl 2α-acetoxyurs-12-en-23-al-3-on-28-oate, tetrahydropyranyl 3β,23-diacetoxyurs-12-en-28-oate, ethoxymethyl 2α-hydroxy-3β,23-isopropylidendioxyurs-12-en-28-oate, methyl 2,3-β-epoxy-12-en-23-carbomethoxyurs-28-oate, methyl 2,3-β-epoxy-12-en-23-benzamidours-28-oate, 1-ethoxyethyl asiatate and 2',3',4',6'-tetra-O-acetylglucosyl 2,3,23-tri-O-acetylurs-28-oate, against galactosamine-induced toxicity of liver cell, the following experiment was performed.
(§1) As experimental animals, male Wister rats weighing between 150~200 g were used. All rats were fasted during 18~24 h, and then the isolation of liver cells was performed by using the two-step collagenase flow-through method [D. M. Crisp and C. I. Pogson, Biochem., 126, 1009 (1972)], which is a form that the Berry & Friend method [M. N. Berry and D. S. Friend, J. Cell, Biol., 43, 5006 (1969)] is a little modified.
(§2) The isolated liver cells were incubated in a normal incubation medium for 1.5 h, and then more incubated in 1.5 mM galactosamine-containing incubation medium for 14 h to induce liver cells to get into the toxicity of galactosamine [Y. Kris, M. Tohkin and H. Hikino, J. Nat. Prod., 46, 841 (1983)].
(§3) These liver cells getting into toxicity induced by said methods were incubated separately in the incubation mediums containing said compounds of 5 μg/ml and 50 μg/ml. Then, withdrawing the incubation medium, the activity of glutamic pyruvic transaminase (GPT) was determined by the Reitman-Frankel method [S. Reitman and S. Frankel, Am, J. Cli. Pathol., 28, 56 (1957)]. The GPT value of healthy liver cell was defined as 100%, and that of liver cell getting into toxicity induced by said methods was defined as 0%. At the basis of said definition, the GPT values of liver cells recovered from galactosamine-induced toxicity by the compounds were converted into relative protections (%) to show the protection effect of liver cell against the toxicity by the compounds.

[2] = tested on: liver cell (carbon tetrachloride-induced toxicity); experiment: Protection effect against carbon tetrachloride-induced toxicity of liver cell (GPT activity, relative protection); format: cell-based, male Wister rats; conditions: 10 mM carbon tetrachloride, 1.5 h; for Relative liver cell protection at 5 µg/mL / Relative liver cell protection at 50 µg/mL: Rattus norvegicus
Experimental: as §1, §3
To investigate the protection effect of the compounds of the formula 1 of this invention against carbon tetrachloride-induced toxicity of liver cell, the following experiment was performed.
(§4) The experiment was performed in the same manner as in Experimental example 1, except that carbon tetrachloride was used by following method to induce liver cells to get into the toxicity.
(§5) The isolated liver cells were incubated in a normal incubation medium for 24 h, and then more incubated in 10 mM carbon tetrachloride-containing incubation medium for 1.5 h to induce liver cells to get into the toxicity of carbon tetrachloride [Y. Kiso, Y. Suzuki and H. Hikino, Planta. Med., 49, 222 (1983)].

[3] = tested on: liver cell (galactosamine-induced toxicity); experiment: Concentration dependency of protection effect against galactosamine-induced toxicity of liver cell; format: cell-based, male Wister rats; conditions: for Relative liver cell protection (%) at 1 µM / Relative liver cell protection (%) at 10 µM / Relative liver cell protection (%) at 50 µM / Relative liver cell protection (%) at 100 µM / Relative liver cell protection (%) at 200 µM: Rattus norvegicus
Experimental: as §1, §2, §3
To investigate concentration dependency of the protection effect of the compounds of the formula 1 of this invention, i. e. 2-oxoasiatic acid, 2-methylasiatic acid and methyl 2α-acetoxyurs-12-en-23-al-3-on-28-oate, against galactosamine-induced toxicity of liver cell, the experiment was performed in the same manner as in Experimental example 1, except that the compound concentrations tested were 1, 10, 50, 100 and 200 μM.

[4] = tested on: liver cell (carbon tetrachloride-induced toxicity); experiment: Concentration dependency of protection effect of liver cell against carbon tetrachloride-induced toxicity; format: cell-based, male Wister rats
Experimental: as §1, §3, §4, §5
To investigate the concentration dependency of the protection effect of the compounds of the formula 1 of this invention, i. e. 2-oxoasiatic acid, against carbon tetrachloride-induced toxicity of liver cell, the experiment was performed in the same manner as in Experimental example 2, except that the compound concentrations tested were 1, 10, 50, 100 and 200 μM.

in vivo = conditions: mouse, in vivo, ip
Experimental: (§6) Administering 2-oxoasiatic acid of various concentrations to male ICR mice weighing between 20~25 g by peritoneal injection, the toxicity of 2oxoasiatic acid was tested.

male ICR mice = experiment: Safety study through toxicity test in mice by peritoneal injection
Experimental: as §6

[5] = 5 μg/ml of compound concentration
[6] = 50 μg/ml of compound concentration

| Compound | Relative liver cell protection (%) [1, 5] [%] | Relative liver cell protection (%) [1, 6] [%] | Relative liver cell protection (%) [2, 5] [%] | Relative liver cell protection (%) [2, 6] [%] | concentration dependency of protection effect ([3]; 100 and 200 μM) | concentration dependency of protection effect ([3]; range of 1~50 μM) | Relative liver cell protection (%) at 5 µg/mL [1, 5] [%] | Relative liver cell protection (%) at 50 µg/mL [1, 6] [%] | Relative liver cell protection at 5 µg/mL [2, 5] [%] | Relative liver cell protection at 50 µg/mL [2, 6] [%] | further results |
| --- | --- | --- | --- | --- | --- | --- | --- | --- | --- | --- | --- |
| 2',3',4',6'-tetra-O-acetylglucosyl 2,3,23-tri-O-acetylurs-28-oate | 79 | 21 | 39 | 34 | – | – | – | – | – | – | – |
| 2-methylasiatic acid | 43 | 62 | 29 | 9 | the protection effects of them rapidly decreased | the greater were the protection effects | – | – | – | – | Relative liver cell protection (%) ([3]; compound 1 μM): 31.9%; Relative liver cell protection (%) ([3]; compound 10 μM): 40.3%; Relative liver cell protection (%) ([3]; compound 50 μM): 58.2%; Relative liver cell protection (%) ([3]; compound 100 μM): 43.9%; Relative liver cell protection (%) ([3]; compound 200 μM): 0.0% |
| CCOC(C)OC(=O)[C@]12CC[C@@H](C)[C@H](C)[C@H]1C1=CC[C@@H]3[C@@]4(C)C[C@@H](O)[C@H](O)[C@@](C)(CO)[C@@H]4CC[C@@]3(C)[C@]1(C)CC2 (stereo partly shown) [1-Ethoxyethyl asiatate, 1-ethoxyethyl asiatate] | – | – | – | – | – | – | 66 | 0 | 8 | 7 | – |
| C[C@H]1[C@H](C)CC[C@]2(C(=O)O)CC[C@]3(C)C(=CC[C@@H]4[C@@]5(C)CC(=O)[C@H](O)[C@@](C)(CO)[C@@H]5CC[C@]43C)[C@H]12 [2-Oxoasiatic acid, 2-oxoasiatic acid] | – | – | – | – | the protection effects of them rapidly decreased | the greater were the protection effects | 15 | 62 | 30 | 44 | Relative liver cell protection (%) at 1 µM ([3]; compound 1 μM): 29.8%; Relative liver cell protection (%) at 10 µM ([3]; compound 10 μM): 43.2%; Relative liver cell protection (%) at 50 µM ([3]; compound 50 μM): 50.4%; Relative liver cell protection (%) at 100 µM ([3]; compound 100 μM): 25.3%; Relative liver cell protection (%) at 200 µM ([3]; compound 200 μM): 8.5%; relative liver cell protection at 1 µM ([4]; Rattus norvegicus, compound 1 μM): 1.6%; relative liver cell protection at 10 µM ([4]; Rattus norvegicus, compound 10 μM): 5%; relative liver cell protection at 50 µM ([4]; Rattus norvegicus, compound 50 μM): 3.3%; relative liver cell protection at 100 µM ([4]; Rattus norvegicus, compound 100 μM): 30.9%; relative liver cell protection at 200 µM ([4]; Rattus norvegicus, compound 200 μM): 48.1%; concentration dependency of protection effect ([4]; concentration range of 1~200 μM): the greater was the protection effects; LD50 (in vivo): 750 mg/kg; opisthotonus (male ICR mice; male ICR mice, peritoneal injection, fatal dose): opisthotonus was showed at a fatal dose; body weight of surviving mice (male ICR mice; mouse, in vivo): did not change; motor activity (male ICR mice; mouse, in vivo): motor activity was decreased dose-dependently; pilo-erection, tachypnea and convulsion (male ICR mice; mouse, in vivo): induced dose-dependently; recovery of surviving mice (male ICR mice; mouse, in vivo): rapid recovery; type of toxicity (male ICR mice; mouse, in vivo): typical toxicity of central nervous system |
| CCOCOC(=O)[C@]12CC[C@@H](C)[C@H](C)[C@H]1C1=CC[C@@H]3[C@@]4(C)C[C@@H](O)[C@@H]5OC(C)(C)OC[C@@]5(C)[C@@H]4CC[C@@]3(C)[C@]1(C)CC2 [ethoxymethyl 2α-hydroxy-3β,23-isopropylidendioxyurs-12-en-28-oate] | – | – | – | – | – | – | 66 | 45 | 15 | 5 | – |
| COC(=O)[C@]12CC[C@@H](C)[C@H](C)[C@H]1C1=CC[C@@H]3[C@@]4(C)C[C@@H](OC(C)=O)C(=O)[C@@](C)(C=O)[C@@H]4CC[C@@]3(C)[C@]1(C)CC2 [methyl 2α-acetoxyurs-12-en-23-al-3-on-28-oate] | – | – | – | – | the protection effects of them rapidly decreased | the greater were the protection effects | 42 | 80 | 21 | 0 | Relative liver cell protection (%) at 1 µM ([3]; compound 1 μM): 27.4%; Relative liver cell protection (%) at 10 µM ([3]; compound 10 μM): 39%; Relative liver cell protection (%) at 50 µM ([3]; compound 50 μM): 60%; Relative liver cell protection (%) at 100 µM ([3]; compound 100 μM): 33.1%; Relative liver cell protection (%) at 200 µM ([3]; compound 200 μM): 0% |
| CC(=O)OC[C@@]1(C)[C@@H]2CC[C@]3(C)[C@H](CC=C4[C@@H]5[C@@H](C)[C@H](C)CC[C@]5(C(=O)OC5CCCCO5)CC[C@]43C)[C@@]2(C)CC[C@@H]1OC(C)=O (stereo partly drawn) [tetrahydropyranyl 3β,23-diacetoxyurs-12-en-28-oate] | – | – | – | – | – | – | 58 | 66 | 42 | 30 | – |
| methyl 2,3-β-epoxy-12-en-23-benzamidours-28-oate | 38 | 40 | 0 | 23 | – | – | – | – | – | – | – |
| methyl 2,3-β-epoxy-12-en-23-carbomethoxyurs-28-oate | 26 | 53 | 0 | 0 | – | – | – | – | – | – | – |
